Measured values from US5387419A, “System for controlled release of antiarrhythmic agents” (The University of Michigan, priority 1993, dated 1995).

Legend:
[1] = system: Ischemia-induced ventricular tachycardia; test: In vivo acute ischemia-induced ventricular tachycardia study; parameters: species or system dog; conditions: for VT (per/minute): number of VT episodes per minute following epicardial placement: average for N dogs, patches (dose mg/kg/2hr): lidocaine 28% Tecoflex (0.23, N 5), propranolol 30% MPU-5 (0.14, 6), D-sotalol 30% MPU-5 (0.20, 9), verapamil 30% MPU-5 (0.30, 11); for Effectiveness against ischemia-induced ventricular tachycardia: in words, epicardial controlled release
Procedure: Controlled release dosage forms of the present invention have been successful in preventing ischemia-induced ventricular tachycardia in a canine model. Ventricular occlusions of the left anterior descending coronary artery of a dog were produced by exposing and isolating the artery in a dog under anesthesia. A snare with a sliding closure was placed around the artery. Ventricular tachycardia was produced by closing the snare for 10 minutes to shut off the blood supply to left ventricle. The snare was opened for an hour, and then the snare was closed for 10 minutes. This procedure can be repeated up six times and simulates a heart attack. Ventricular tachycardia (VT) was defined as the occurrence of 3 or more sequential ventricular premature beats. The efficacy of various controlled release dosage forms of the present invention were documented by continuous recording of the electrophysiologic data on a Hewlett Packard Physiologic Records, and an 8-channel analogue tape deck (Hewlett Packard, Philadelphia, Pa.).
The data is expressed as the average for the number N of dogs per group. Episodes of VT were paced at one per minutes.

[2] = system: Ventricular tachycardia (VT) induced by rapid ventricular pacing; test: In vivo ventricular pacing study: conversion of ventricular tachycardia induced by rapid ventricular pacing; parameters: species or system dog (male mongrel dogs); conditions: for Effectiveness in converting ventricular tachycardia: in words, controlled release dosage form, epicardial; for Conversion / Peak % Increase in VT Threshold: mean ± standard error; for Conversion: patches: lidocaine 28% in Tecoflex (N 16), procainamide 30% in Thyomer (7), amiodarone 30% in Thyomer with 10% polyethyleneglycol 200 (3), NiCl2 50% in Thyomer (4); for Peak % Increase in VT Threshold: same patches: lidocaine/Tecoflex, procainamide/Thyomer, amiodarone/Thyomer with polyethyleneglycol, NiCl2/Thyomer
Text: Ventricular tachycardia was induced and maintained by rapid ventricular pacing in an open-chest dog model using male mongrel dogs (10-15 kg). Three sets of bipolar epicardial electrodes were placed at 2 cm distances from the left ventricular apex toward the base of the heart. A Grass Model 8 stimulator (Grass Instruments, delivered continuous electrical stimulation as 2-msec square wave impulses with a 50-msec cycle length via a stimulus isolation unit (Bloom Associates, Reading, Pa.). The stimulus isolation unit also repeatedly monitored the pacing current thresholds. After induction of ventricular tachycardia, a controlled release dosage form of the present invention in the shape of a patch of the drug-loaded polymeric matrix material was placed adjacent to the stimulating electrode. The time required to convert the ventricular tachycardia to sinus rhythm was measured, as well as the time course of the quantitative change for sustaining the induction of ventricular tachycardia. The effects of controlled release were monitored for up to 4 hours after conversion to normal sinus rhythm.
All other dosage forms were fabricated by dissolving the therapeutic agent in dimethylacetamide at a concentration of 100 mg/ml therapeutic agent. This solution was further dissolved in a 10% solution of a Thyomer polyurethane and solvent cast into a 0.2 mm films. […] Controls comprised patches of each polymeric matrix material.

[3] = oral; cited from earlier work
normal cardiac function = test: Other studies: effects of transmyocardial lidocaine on normal cardiac function; type: in vivo; conditions: lidocaine administered by transmyocardial route

Compound	VT (per/minute): number of VT episodes per minute following epicardial placement [1]	Peak % Increase in VT Threshold [2]	also measured
COc1ccc(CCN(C)CCCC(C#N)(c2ccc(OC)c(OC)c2)C(C)C)cc1OC (stereo not shown) [Verapamil, verapamil]	0.10 ± .03 per/minute		Effectiveness against ischemia-induced ventricular tachycardia [1]: the most effective for arrhythmias due to acute myocardial ischemia
CCN(CC)CCNC(=O)c1ccc(N)cc1 [Procainamide, procainamide]		206.7 ± 172.6%	Effectiveness in converting ventricular tachycardia [2]: effective in converting ventricular tachycardia; Conversion [2]: 4.05 ± 3.15 min
CCCCc1oc2ccccc2c1C(=O)c1cc(I)c(OCCN(CC)CC)c(I)c1 [Amiodarone, amiodarone]		36.1 ± 12.7%	Severe side effects, share of patients [3]: over 70%
CC(C)NC[C@@H](O)c1ccc(NS(C)(=O)=O)cc1 [D-Sotalol, d-sotalol]	.046 ± .11 per/minute		Effectiveness against ischemia-induced ventricular tachycardia [1]: the most effective for arrhythmias due to acute myocardial ischemia
CCN(CC)CC(=O)Nc1c(C)cccc1C [Lidocaine, lidocaine]	0.6 ± 0.2 per/minute	367.7 ± 183.1%	Other effects on normal cardiac function (normal cardiac function): no other significant effects on normal cardiac function
[Cl][Ni][Cl] [NiCl2, nickel chloride]		122.6 ± 101.3%	Effectiveness in converting ventricular tachycardia [2]: effective to convert tachycardia to normal sinus rhythm; Conversion [2]: 2.08 ± 1.71 min
CC(C)NCC(O)COc1cccc2ccccc12 (stereo not shown) [Propranolol, propranolol]	1.22 ± .12 per/minute		
